Laboratory results taken from patent US9474281B2, “Fungicidal composition and method for controlling plant diseases” (ISHIHARA SANGYO KAISHA, LTD., priority 2008, dated 2016).
Several values for one entry are separate records, joined by “and”; a condition that tells them apart may be missing. Equal values may be shown once.

Tests used:
Sphaerotheca cucurbitae = assay: Test on preventive effect against cucumber powdery mildew; assay type: in vivo; design: scale not given here; settings: applied alone
Protocol: Cucumber (cultivar: Suyo) was cultivated in a plastic pot having a diameter of 7.5 cm, and when it reached 1.5-leaf stage, 10 ml of a chemical solution having the compound of the present invention adjusted to a prescribed concentration, was applied by a spray gun. After the chemical solution dried, a suspension of conidia of Sphaerotheca cucurbitae was sprayed and inoculated and maintained in a constant temperature chamber at 20° C. From 9 to 10 days after the inoculation, the area of sporulation was investigated, and the disease rate was determined in the same manner as in Test Example 1, and the results are shown in Tables 5 to 20. The average lesion area in the non-treated plot was determined in the same manner as for the treated plot except that water was applied by a spray gun instead of the chemical solution.
Further, theoretical values by the Colby's formula are shown in brackets in Tables 5 to 20.

Erysiphe graminis = assay: Test on preventive effect against wheat powdery mildew; assay type: in vivo; design: key: lesion area as % of non-treated plot: (treated/non-treated)×100; settings: applied alone
Protocol: Wheat (cultivar: Norin-61-go) was cultivated in a plastic pot having a diameter of 7.5 cm, and when it reached 1.5-leaf stage, 10 ml of a chemical solution having each test compound adjusted to a prescribed concentration, was applied by a spray gun in an amount of 1000 L/ha. After the chemical solution dried, conidia of Erysiphe graminis were dusted and inoculated and maintained in a constant temperature chamber at 20° C. From 6 to 8 days after the inoculation, the area of sporulation was investigated, and the disease rate was determined in accordance with the following formula, and the results are shown in Tables 1 to 4. The average lesion area in the non-treated plot was determined in the same manner as for the treated plot except that water was applied by a spray gun instead of the chemical solution. Disease rate=(a/b)×100
a: average lesion area in the treated plot
b: average lesion area in the non-treated plot
Theoretical values were calculated in accordance with the Colby's formula. The fungicidal composition of the present invention has a synergistic effect regarding the test on preventive effect against wheat powdery mildew, when the experimental value is lower than the theoretical value. Theoretical values by the Colby's formula in such cases are shown in brackets in Tables 1 to 4.

## CC(=O)Oc1c(C)c(C)nc2c(F)cc(C(C)(C)C)cc12 [6-t-butyl-8-fluoro-2,3-dimethylquinolin-4-yl acetate]
Sphaerotheca cucurbitae; 6.3 ppm
  Disease rate: 83.6
Sphaerotheca cucurbitae; 12.5 ppm
  Disease rate: 63.9
Sphaerotheca cucurbitae; 25 ppm
  Disease rate: 59.0
Sphaerotheca cucurbitae; 50 ppm
  Disease rate: 34.4

## O=C(Nc1ccccc1-c1ccc(Cl)cc1)c1cccnc1Cl [Boscalid]
Sphaerotheca cucurbitae; 6.3 ppm
  Disease rate: 43.0
Sphaerotheca cucurbitae; 12.5 ppm
  Disease rate: 43.0
Sphaerotheca cucurbitae; 25 ppm
  Disease rate: 25.8

## COc1cc(C)c(C(=O)c2c(OC)ncc(Cl)c2C)c(OC)c1OC [Compound No. 35, 3-(2,3,4-trimethoxy-6-methylbenzoyl)-5-chloro-2-methoxy-4-methylpyridine]
Erysiphe graminis; 0.8 ppm
  Disease rate: 70 and 100
Erysiphe graminis; 1.6 ppm
  Disease rate: 70 and 100
Erysiphe graminis; 3.1 ppm
  Disease rate: 100
Erysiphe graminis; 6.3 ppm
  Disease rate: 60

## COc1cc(C)c(C(=O)c2c(Cl)cnc(Cl)c2C(F)(F)F)c(OC)c1OC [Compound No. 39, 4-(2,3,4-trimethoxy-6-methylbenzoyl)-2,5-dichloro-3-trifluoromethylpyridine]
Erysiphe graminis; 1.6 ppm
  Disease rate: 85
Erysiphe graminis; 3.1 ppm
  Disease rate: 75
Erysiphe graminis; 6.3 ppm
  Disease rate: 60

## COc1cc(C)c(C(=O)c2c(OC)cnc(Cl)c2C(F)(F)F)c(OC)c1OC [Compound No. 40, 4-(2,3,4-trimethoxy-6-methylbenzoyl)-2-chloro-3-trifluoromethyl-5-methoxypyridine]
Erysiphe graminis; 0.8 ppm
  Disease rate: 50
Sphaerotheca cucurbitae; 1.6 ppm
  Disease rate: 43.0

## CC1COC(Cn2cncn2)(c2ccc(Oc3ccc(Cl)cc3)cc2Cl)O1 (stereo not shown) [Difenoconazole]
Erysiphe graminis; 12.5 ppm
  Disease rate: 85
Erysiphe graminis; 25 ppm
  Disease rate: 70
Erysiphe graminis; 50 ppm
  Disease rate: 40

## C/C=C/C(=O)Oc1c(C(C)CCCCCC)cc([N+](=O)[O-])cc1[N+](=O)[O-] (stereo not shown) [Mepthyldinocap, Meptyldinocap]
Sphaerotheca cucurbitae; 0.8 ppm
  Disease rate: 75
Sphaerotheca cucurbitae; 1.6 ppm
  Disease rate: 60
Sphaerotheca cucurbitae; 3.1 ppm
  Disease rate: 60

## CC(C)CC(C)c1sccc1NC(=O)c1cn(C)nc1C(F)(F)F (stereo not shown) [Penthiopyrad]
Sphaerotheca cucurbitae; 0.4 ppm
  Disease rate: 77.4
Sphaerotheca cucurbitae; 0.8 ppm
  Disease rate: 51.6
Sphaerotheca cucurbitae; 1.6 ppm
  Disease rate: 17.2

## COC(=O)N(OC)c1ccccc1COc1ccn(-c2ccc(Cl)cc2)n1 [Pyraclostrobin]
Erysiphe graminis; 100 ppm
  Disease rate: 100
Erysiphe graminis; 200 ppm
  Disease rate: 100
Erysiphe graminis; 400 ppm
  Disease rate: 100

## COC(=O)NCc1cc(/C(C)=N/OCc2cccc(C)n2)ccc1Cl [Pyribencarb]
Sphaerotheca cucurbitae; 12.5 ppm
  Disease rate: 73.0
Sphaerotheca cucurbitae; 25 ppm
  Disease rate: 63.2
Sphaerotheca cucurbitae; 50 ppm
  Disease rate: 63.2

## COc1ccccc1N1CCS/C1=C(/C#N)Sc1cc(C(F)(F)F)ccc1F [flutianil]
Sphaerotheca cucurbitae; 0.0063 ppm
  Disease rate: 95
Sphaerotheca cucurbitae; 0.0125 ppm
  Disease rate: 85
Sphaerotheca cucurbitae; 0.025 ppm
  Disease rate: 65

## S1SSSSSSS1 [sulfur, Sulfur]
Sphaerotheca cucurbitae; 6.3 ppm
  Disease rate: 98.0
Sphaerotheca cucurbitae; 12.5 ppm
  Disease rate: 88.2
Sphaerotheca cucurbitae; 25 ppm
  Disease rate: 68.6

## CC1CCN(C2C(c3c(F)cc(F)cc3F)=C(Cl)N=C3N=CNN32)CC1 (stereo not shown) [the compound of the formula (II)]
Sphaerotheca cucurbitae; 0.8 ppm
  Disease rate: 88.1
Sphaerotheca cucurbitae; 3.1 ppm
  Disease rate: 17.2
Sphaerotheca cucurbitae; 6.3 ppm
  Disease rate: 8.6
